US20250099626A1, “COMPOSITIONS AND METHODS FOR OXONOL DYES WITH NEAR INFRARED FLUORESCENCE” (Washington University, priority 2023, published 2025)

How the values were obtained:
[1] = Fluorescence lifetime (FLT) by time-correlated single photon counting; format: physicochemical
Description: Fluorescence lifetimes (FLT) were measured using time-correlated single photon counting (TCSPC implemented in Fluorolog-3, Horiba Jobin Yvon) with a 700 nm excitation source NanoLed® (impulse repetition rate 1 MHz) at 90° to the PMT R928P detector (Hamamatsu Photonics, Japan). […] We chose DMSO as the solvent for this study because it provides a similar environment to the biological systems. The detector was set to 740 nm with a 20 nm bandpass and data were collected until the peak signal reached 10,000 counts.

[2] = Relative fluorescence quantum yield using ICG as a standard; format: physicochemical; conditions: DMSO
Description: The absorption spectra of 4 and 15 were measured in both methanol (FIG. 4(A-B)) and DMSO (FIG. 5(A-D)). […] The broad emission bands allow flexibility in the choice of excitation and fluorescence wavelengths in analytical and biological assays. The relative fluorescence quantum yields of dyes 4 and 15 measured in DMSO using ICG as a standard show the values of 0.24 and 0.093 respectively compared to 0.12 for ICG.

SKBR3-GFP-Luc cells = experiment: Cellular fluorescence intensity imaging (NIR channel) of dye uptake; format: cell-based, human; conditions: 5 μM, 24 h incubation
Description: SKBR3-GFP-Luc cells (Dual labeled stable SK-BR-3 expressing green fluorescent protein (GFP) and luciferase, SL032, GeneCopoeia, Rockville, MD) were cultured in Dulbecco's Modified Eagle Medium (DMEM high glucose, Gibco) supplemented with 10% Fetal Bovine Serum (FBS), 1% penicillin/streptomycin and 5 μg/mL puromycin, and maintained in a humidified incubator at 37° C. with 5% CO2 atmosphere. For imaging experiments, these GFP labeled HER2+ human breast cancer cells were plated in Fluorobrite DMEM media (Gibco) supplemented with 10% FBS and 1% pen/strep in an 8-well chamber slide (6.0×10^4 cells in 200 μL media per well). […] All cells were washed with DPBS (300 μL×2) before mounting (Fluoromount-G, #1 coverslip) and imaging the slides with either a Zeiss AxioImager Z2 fluorescence microscope or FLIM.
Fluorescence intensity imaging was conducted on a Zeiss Axioimager.Z2 microscope equipped with a Hamamatsu ORCA Flash 4.0 V2 camera, X-Cite Xylis LED-based light source, and 20× Zeiss Plan-Apochromat air objective (0.8 N.A.) The imaging parameters included DAPI: excitation 335-383 nm/emission 420-470 nm/exposure time […] GFP: ex 450-490 nm/500-550 nm/46 ms exposure and NIR: ex 715-752 nm/760-855 nm/1 s exposure. […]

Solubility in water = format: physicochemical
[3] = Absorption and fluorescence emission spectra of the dyes in solvent; format: physicochemical; conditions: for Emission max, nm: excitation 700 nm
Description: Absorption spectra were recorded on a Beckman Coulter DU 640 UV-visible spectrophotometer (Brea, CA) and fluorescence spectra were recorded on a Fluorolog-3 spectrofluorometer (Horiba Jobin Yvon, Inc., Edison, NJ). All fluorescence measurements were conducted at room temperature and were recorded at excitation of 700 nm and emission scan from 715-900 nm.

[4] = DMSO; reference value of ICG standard; cited from earlier work

Fluorescent lifetime, ns ([1]; DMSO, 700 nm excitation, detector 740 nm) [ns] | Fluorescent lifetime, ns ([1]; Methanol) [ns] | Quantum yield (relative fluorescence quantum yield) [2] | Solubility in water (Solubility in water) | Abs max, nm ([3]; DMSO) [nm] | Emission max, nm ([3]; DMSO) [nm] | Abs max, nm ([3]; Methanol) [nm] | Emission max, nm ([3]; Methanol) [nm] | SMILES | Cellular internalization / uptake judged by signal intensity in NIR channel (SKBR3-GFP-Luc cells) | Fluorescence quantum yield of the standard [4]
0.65 | 0.28 | 0.24 | low solubility in water | 719 | 744 | 704 | 731 | O=c1cc2/c(=C/C=C/C=C/c3c4c5c(cc(O)cc5oc3=O)OC(O)=C4)c(=O)oc3cc(O)cc(o1)c32 [Dye 4] | essentially no appreciable uptake | –
– | – | – | – | – | – | – | – | CC1(C)C(/C=C/C=C/C=C/C=C2\N(CCCCS(=O)(=O)O)c3ccc4ccccc4c3C2(C)C)=[N+](CCCCS(=O)(=O)[O-])c2ccc3ccccc3c21 [ICG, indocyanine green] | – | 0.12
